Organism: Rattus norvegicus
Assay: DrugMatrix - Regimen: Daily Repeat
Assay type: toxicity, organism-based, Sprague-Dawley
Parameters: regimen Daily Repeat, gender Male, age 6-8 weeks
Details: in vivo, po, route oral GAVAGE; for ALANINE AMINOTRANSFERASE / ALBUMIN / ALKALINE PHOSPHATASE / ASPARTATE AMINOTRANSFERASE / BLOOD UREA NITROGEN / CARBON DIOXIDE / CHLORIDE / CHOLESTEROL / CREATINE PHOSPHOKINASE / CREATININE / GLUCOSE / LACTATE DEHYDROGENASE / LIPASE / PHOSPHORUS / POTASSIUM / SODIUM / TOTAL BILIRUBIN / TOTAL PROTEIN / URIC ACID: tissue Plasma
[1] = 4.5 mg/kg, 72 h, tissue Blood, dose level Low, time 3 day, vehicle 100 % WATER
[2] = 4.5 mg/kg, 72 h, dose level Low, time 3 day, vehicle 100 % WATER
[3] = 4.5 mg/kg, 120 h, tissue Blood, dose level Low, time 5 day, vehicle 100 % WATER
[4] = 4.5 mg/kg, 120 h, dose level Low, time 5 day, vehicle 100 % WATER
[5] = 7 mg/kg, 96 h, tissue Blood, dose level M1, time 4 day, […]

COc1ccc2c(c1)c(CC(=O)O)c(C)n2C(=O)c1ccc(Cl)cc1 [INDOMETHACIN]
HEMATOCRIT [1]: 32.73%
HEMOGLOBIN [1]: 13.1 G/DL
LEUKOCYTE COUNT [1]: 8.7 x10E3/uL
LYMPHOCYTE [1]: 87.33%
MEAN CORPUSCULAR HEMOGLOBIN [1]: 25.43 pg
MEAN CORPUSCULAR HEMOGLOBIN CONCENTRATION [1]: 40.03 G/DL
MEAN CORPUSCULAR VOLUME [1]: 63.57 fL
MONOCYTE [1]: 2.33%
NEUTROPHIL [1]: 10.33%
NUCLEATED RED BLOOD CELLS [1]: 0 /100WBC
PLATELET COUNT [1]: 1131.67 x10E3/uL
ALANINE AMINOTRANSFERASE [2]: 52.67 u/L
ALBUMIN [2]: 3.9 G/DL
ALKALINE PHOSPHATASE [2]: 367 u/L
ASPARTATE AMINOTRANSFERASE [2]: 74.33 u/L
BLOOD UREA NITROGEN [2]: 13.67 mg/dL
CARBON DIOXIDE [2]: 24.67 mmol/L
CHLORIDE [2]: 94 MEQ/L
CHOLESTEROL [2]: 72.33 mg/dL
CREATINE PHOSPHOKINASE [2]: 273.33 u/L
CREATININE [2]: 0.1 mg/dL
GLUCOSE [2]: 165 mg/dL
LACTATE DEHYDROGENASE [2]: 101.67 u/L
LIPASE [2]: 9 u/L
PHOSPHORUS [2]: 11.6 mg/dL
POTASSIUM [2]: 5.46 MEQ/L
SODIUM [2]: 137.1 MEQ/L
TOTAL BILIRUBIN [2]: 0.13 mg/dL
TOTAL PROTEIN [2]: 5.7 G/DL
URIC ACID [2]: 0.8 mg/dL
ABSOLUTE BASOPHIL [3]: 0 CELLS/uL
ABSOLUTE EOSINOPHIL [3]: 66.67 CELLS/uL
ABSOLUTE LYMPHOCYTE [3]: 7873.33 CELLS/uL
ABSOLUTE MONOCYTE [3]: 253.33 CELLS/uL
ABSOLUTE SEGMENTED NEUTROPHIL [3]: 1273.33 CELLS/uL
BASOPHIL [3]: 0%
EOSINOPHIL [3]: 0.67%
ERYTHROCYTE COUNT [3]: 4.7 x10E6/uL
HEMATOCRIT [3]: 30.3%
HEMOGLOBIN [3]: 12.03 G/DL
LEUKOCYTE COUNT [3]: 9.47 x10E3/uL
LYMPHOCYTE [3]: 83%
MEAN CORPUSCULAR HEMOGLOBIN [3]: 25.6 pg
MEAN CORPUSCULAR HEMOGLOBIN CONCENTRATION [3]: 39.67 G/DL
MEAN CORPUSCULAR VOLUME [3]: 64.47 fL
MONOCYTE [3]: 2.67%
NEUTROPHIL [3]: 13.67%
NUCLEATED RED BLOOD CELLS [3]: 0 /100WBC
PLATELET COUNT [3]: 1362.67 x10E3/uL
ALANINE AMINOTRANSFERASE [4]: 48.67 u/L
ALBUMIN [4]: 3.83 G/DL
ALKALINE PHOSPHATASE [4]: 350.67 u/L
ASPARTATE AMINOTRANSFERASE [4]: 60.67 u/L
BLOOD UREA NITROGEN [4]: 12 mg/dL
CARBON DIOXIDE [4]: 32 mmol/L
CHLORIDE [4]: 105 MEQ/L
CHOLESTEROL [4]: 66.67 mg/dL
CREATINE PHOSPHOKINASE [4]: 173.67 u/L
CREATININE [4]: 0.11 mg/dL
GLUCOSE [4]: 154 mg/dL
LACTATE DEHYDROGENASE [4]: 70.33 u/L
LIPASE [4]: 9.67 u/L
PHOSPHORUS [4]: 11 mg/dL
POTASSIUM [4]: 5.99 MEQ/L
SODIUM [4]: 146.87 MEQ/L
TOTAL BILIRUBIN [4]: 0.2 mg/dL
TOTAL PROTEIN [4]: 5.77 G/DL
URIC ACID [4]: 0.53 mg/dL
ABSOLUTE BASOPHIL [5]: 0 CELLS/uL
ABSOLUTE EOSINOPHIL [5]: 0 CELLS/uL
ABSOLUTE LYMPHOCYTE [5]: 6250 cells/µL
ABSOLUTE MONOCYTE [5]: 160 cells/µL
BASOPHIL [5]: 0%
EOSINOPHIL [5]: 0%
ERYTHROCYTE COUNT [5]: 3.97 x10E6/uL
HEMATOCRIT [5]: 25.4%
HEMOGLOBIN [5]: 8.9 G/DL
LEUKOCYTE COUNT [5]: 12.7 x10E3/uL
LYMPHOCYTE [5]: 78.5%
MEAN CORPUSCULAR HEMOGLOBIN [5]: 22.6 pg
MEAN CORPUSCULAR HEMOGLOBIN CONCENTRATION [5]: 35.1 G/DL
MEAN CORPUSCULAR VOLUME [5]: 64.5 fL
MONOCYTE [5]: 2%
NEUTROPHIL [5]: 19.5%

Reference: ChEMBL document CHEMBL3885881, “DrugMatrix”
